# Assay results reported in patent US20140227408A1, “MEAT TREATMENT AND PRESERVATION METHOD” (RED MEAT AS, priority 2011, published 2014).
# Key:
# Parameters in all cases: species or system cattle
# [1] = Colour L*, a*, b* of treated ground beef, low oxygen packaging (Example 5); conditions: low oxygen packaging
# Description: Beef M. semimembranosus (M.S.) and beef fat tissue were collected four days post mortem (Fatland A/S, Oslo, Norway). The packaging day is defined as day zero, however, the tissues were 4 days post mortem on packing day. A piece of meat from proximal end was cut from each muscle in order to measure oxygen consumption, pH and surface colour. Fat tissue from pigs fed rapeseed and vitamin E to enhance the content of polyunsaturated fatty acids were from HKScan (Ruokatalo, Finland). The fat tissue was transported vacuum-packaged and frozen. Samples of minced fat tissue were removed for fatty acid analysis.
# The beef muscles were cut into pieces of approximately 10×5 cm and mixed to 14% w/w fat by using the fat tissues. Beef fat and pork fat tissues were ground twice with either raw beef from four young (16-19 months) or four old (46-81 months) cattle. […] The ground meat was blended manually with solutions (all at pH 5.8) with various TCA and glycolytic ingredients (see below).
# To maintain pH at 5.8 the solutions were prepared by mixing the acid form and the corresponding sodium salt of these chemicals.
# […] The solution was quickly and properly stirred into the minced meat and the blended system was subsequently packaged. […] Two reference samples with 40 ml of distilled water added to 360 gram of ground beef were also prepared each of the four production day, i.e. altogether 8 references were prepared. The samples were packaged in either low or high oxygen atmosphere.
# The ground beef was packaged in black amorphous polyethylene terephthalate (APET) trays that were sealed with ethylene vinyl alcohol (EVOH) top films. The trays and films (Wipak Multipet and Wipak Biaxer, both Wipak, Nastola, Finland) had oxygen transmission rates of 7 and 5 cm^3/m^2/24 h at 23° C. at 50% relative humidity. Packaging was carried out within 1 hour after grinding. The samples were stored in darkness at 4° C. for 8 days in a high-oxygen atmosphere (75% oxygen and 25% CO2) and for 13 days in a low-oxygen atmosphere (60% CO2 and 40% N2). These food grade gas mixtures were supplied by AGA (Oslo, Norway).
# The colour of the ground meat samples was measured with a Konica Minolta Chroma Meter CR 410 (Konica Minolta Sensing Inc., Osaka, Japan) using the glass light projection tube CR A 33e with wide illumination area (61 mm) and illuminant D65. The instrument was calibrated each day by measuring a white ceramic plate (L*=97.9; a*=0.05; b*=2). All colour measurements were made with 3 replicates (CIE, 1976, “Recommendations on uniform colour spaces-colour difference equations” (Vol. Supplement No. 2 to CIE). Paris, France: Commission Internationale de l'Eclairage).
# The colour of the samples packaged in high O2 was measured after 0, 1, 3, 6 and 8, days of storage from packaging day, while low O2 samples were measured at 0 to 13 days of storage using Minolta and reflectance measurements.
# The experimental design is visualized in FIG. 5. A 2^2 design (animal age and type of fat tissue) was split over 4 experimental days (FIG. 5, and Tables 10 and 11). To each corner of this 2^2 design was added a 3 component (succinate, pyruvate and glutamate-malate additions; 0, 50 and 100%) simplex lattice mixture design with 2 additional centre experiments as shown in FIG. 5.
# [2] = Colour (b*) of minced beef mixed with test brines, stored in high-oxygen atmosphere (Example 1); conditions: day 6 of storage, amount 1 = 0.1 mol per kg meat
# Description: (§1) Beef fat and pork fat (high degree of unsaturation) were used with raw semimembranosus muscle from young and old cattle. Beef from the hind leg was removed, weighed, chopped, mixed with fat (14% by weight), and the various test compounds were added to the minced meat. The mixtures were packed into boxes and sealed with plastic sheeting. Packing was done with MAP to yield a low-oxygen atmosphere (60% CO2 and 40% N2) and also under a high-oxygen atmosphere (75% oxygen and 25% CO2). The samples were stored in darkness at 4° C. from 0 to 8 days for the high-oxygen atmosphere and 0 to 13 days for the MAP samples. A Cheers Packaging Machine (Promens) was used for packaging of samples. Triplicate reference samples with only 40 ml of distilled water mixed and packaged as described above were evaluated at days 6 and 8 for the high-oxygen environment and at days 6, 8, 10 and 13 for the MAP environment.
# (§2) Samples of test compounds were prepared with succinate, glutamate, malate, pyruvate and citrate in different combinations, either as single chemicals or as mixtures. The acid and conjugate base of each active component was added in the appropriate ratio to provide the solutions (brines) with a pH of 5.8. As will be clear from the foregoing description, the “succinate” used in this experiment was a combination of succinic acid and sodium succinate. The “glutamate”, “malate”, etc. were used equivalently.
# (§3) Meat and fat was cut into small pieces and minced (3 mm holes). 40 g of brine was added to 360 g mince and packed in the plastic packing.
# (§4) Several variables were included in the design of the experiment, using a 2^3 factorial design. […] Malate and glutamate were considered together in the design and analysis, but their ratio was varied in the experiments from pure malate to pure glutamate.
# (§5) Colour changes in the samples were measured with a FOSS NIRSystems™ 6500 analyser and a Konica Minolta Chroma meter CR 410 (Konica Minolta Sensing Inc., Osaka, Japan). Colour was measured using the parameters L*, a* and b* at 0, 1, 3, 6 and 8 days for samples stored in 75% oxygen. Colour changes of the samples packaged in MAP were measured at 0, 1, 3, 6, 8, 10 and 13 days of storage time.
# Results from the experiments carried out on the various meat and fat samples are shown below in Tables 1 to 8. Values given for the amount of active agents in Tables 1 to 8 correspond to the molar proportion of the given agent within the brine/meat mixture, where a value of 1 corresponds to 0.1 moles active agent per kg of meat, a value of 0.5 corresponds to 0.05 mol/kg, etc. […]
# The data from the experiment described in Example 1 were analyzed using an ANOVA model with all main effect and second and higher order effects according to the method described in Langsrud, Ø. […]
# [3] = Colour (b*, a*) of minced beef mixed with test brines, stored in low-oxygen MAP (Examples 1-2); conditions: for b*: low oxygen (MAP), day 6 of storage, amount 1 = 0.1 mol per kg meat
# Description: as §1, §2, §3, §4, §5
# Results from the experiments carried out on the various meat and fat samples are shown below in Tables 1 to 8. Values given for the amount of active agents in Tables 1 to 8 correspond to the molar proportion of the given agent within the brine/meat mixture, where a value of 1 corresponds to 0.1 moles active agent per kg of meat, a value of 0.5 corresponds to 0.05 mol/kg, etc. […] The b* values, which are considered to be most representative of the colour changes in the meat being tested, are shown. All results correspond to measurements made on day 6 of storage
# The data from the experiment described in Example 1 were analyzed using an ANOVA model with all main effect and second and higher order effects according to the method described in Langsrud, Ø. (“50-50 Multivariate Analysis of Variance for Collinear Responses” The Statistician (2002) 51, pp. 305-317). […] The mixture design was fractional.
# [4] = old beef muscle mixed with beef fat
# [5] = old beef muscle mixed with pork fat
# [6] = young beef muscle mixed with pork fat
compound,measurement,setting,value
N[C@@H](CCC(=O)O)C(=O)O [glutamate],"effect on redness (a*), in words",[1],nominally higher a* values
O=C(O)CC(O)C(=O)O (racemic) [malate],"effect on yellowness (b*), in words",[1],nominally higher b* values
"O=C(O)CCC(=O)O [succinate 1.00, succinate]",b*,[2]; [4],3.45
same,b*,[2]; [5],3.77
same,b*,[2]; young beef muscle mixed with beef fat,4.01
same,b*,[2]; [6],4.70
same,a*,"[3]; low-oxygen environment, zero citrate, after 6 days storage, relative amounts of succinate, pyruvate, glutamate + malate",9.81
same,b*,[3]; [4],1.48
same,b*,[3]; [5],0.98
same,b*,"[3]; young beef muscle mixed with beef fat, 4° C.",1.07
same,b*,[3]; [6],1.34
